Results: patent US9016829B2, “Ink composition, ink set, and image forming method” (FUJIFILM Corporation, priority 2011, dated 2015)

Assay: Solubility with respect to pure water
Format: physicochemical
Conditions: 25° C.

## CC(C)(O)C(=O)c1ccc(OCCO)cc1 [IRGACURE 2959]
  solubility with respect to pure water: water (25° C.): 7.6 g/l)
